In the supplement of paper PMC10307832:

Tests used:
Test in all cases: relative viability (nuclei count vs DMSO), 5 days (fraction); higher = more cells survive
[1] = system: SW 1573
Procedure, shortened: (§1)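 Relative viability equals treated-well nuclei counts divided by vehicle-well nuclei counts. Counts came from 4× images of lung cancer cell lines grown in 1536-well plates for 5 days after pin-tool dosing on the day after seeding. Dosing used one drug alone or a fixed anchor-drug dose plus five library-drug doses (not always all listed) in √10 steps, and values are medians of duplicate plates.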

[2] = system: SW 900
Procedure, shortened: as §1

[3] = system: NCI-H2228
Procedure, shortened: as §1

[4] = system: HARA
Procedure, shortened: as §1

[5] = system: LK-2
Procedure, shortened: as §1

[6] = system: NCI-H1792
Procedure, shortened: as §1

[7] = system: SK-MES-1
Procedure, shortened: as §1

[8] = system: NCI-H522
Procedure, shortened: as §1

[9] = system: NCI-H1993
Procedure, shortened: as §1

[10] = system: NCI-H2009
Procedure, shortened: as §1

[11] = system: NCI-H727
Procedure, shortened: as §1

[12] = system: LXF-289
Procedure, shortened: as §1

[13] = system: PC-3 [JPC-3]
Procedure, shortened: as §1

[14] = system: NCI-H3122
Procedure, shortened: as §1

[15] = system: NCI-H1944
Procedure, shortened: as §1

[16] = system: HOP-62
Procedure, shortened: as §1

[17] = system: A-427
Procedure, shortened: as §1

[18] = system: NCI-H596
Procedure, shortened: as §1

[19] = system: NCI-H322M
Procedure, shortened: as §1

[20] = system: EMC-BAC-2
Procedure, shortened: as §1

[21] = system: NCI-H2170
Procedure, shortened: as §1

COc1nc(C)cnc1NS(=O)(=O)c1cccnc1-c1ccc(-c2nnco2)cc1 [Zibotentan] + CC(=O)Nc1cccc(-n2c(=O)n(C3CC3)c(=O)c3c(Nc4ccc(I)cc4F)n(C)c(=O)c(C)c32)c1 [Trametinib] (partner 0.02 µM)
relative viability ([1]; first compound 0.08 µM): 0.548 | relative viability ([1]; first compound 0.8 µM): 0.411 | relative viability ([1]; first compound 2.53 µM): 0.729 | relative viability ([2]; first compound 0.08 µM): 0.893 | relative viability ([2]; first compound 0.253 µM): 0.817 | relative viability ([2]; first compound 0.8 µM): 0.846 | relative viability ([2]; first compound 2.53 µM): 0.751 | relative viability ([3]; first compound 0.08 µM): 0.398 | relative viability ([3]; first compound 0.253 µM): 0.62 | relative viability ([3]; first compound 0.8 µM): 0.572 | relative viability ([3]; first compound 2.53 µM): 0.49 | relative viability ([4]; first compound 0.08 µM): 0.996 | relative viability ([4]; first compound 0.8 µM): 0.414 | relative viability ([4]; first compound 2.53 µM): 0.764 | relative viability ([5]; first compound 0.08 µM): 0.881 | relative viability ([5]; first compound 0.253 µM): 0.793 | relative viability ([5]; first compound 0.8 µM): 0.83 | relative viability ([5]; first compound 2.53 µM): 0.703 | relative viability ([6]; first compound 0.08 µM): 0.546 | relative viability ([6]; first compound 0.253 µM): 0.479 | relative viability ([6]; first compound 0.8 µM): 0.389 | relative viability ([6]; first compound 2.53 µM): 0.537 | relative viability ([7]; first compound 0.08 µM): 0.581 | relative viability ([7]; first compound 0.253 µM): 0.533 | relative viability ([7]; first compound 0.8 µM): 0.563 | relative viability ([7]; first compound 2.53 µM): 0.556 | relative viability ([8]; first compound 0.08 µM): 0.732 | relative viability ([8]; first compound 0.253 µM): 0.667 | relative viability ([8]; first compound 0.8 µM): 0.727 | relative viability ([8]; first compound 2.53 µM): 0.856 | relative viability ([9]; first compound 0.08 µM): 0.591 | relative viability ([9]; first compound 0.253 µM): 0.51 | relative viability ([9]; first compound 0.8 µM): 0.459 | relative viability ([9]; first compound 2.53 µM): 0.545 | relative viability ([10]; first compound 0.08 µM): 0.273 | relative viability ([10]; first compound 0.253 µM): 0.258 | relative viability ([10]; first compound 0.8 µM): 0.266 | relative viability ([10]; first compound 2.53 µM): 0.278 | relative viability ([11]; first compound 0.08 µM): 0.371 | relative viability ([11]; first compound 0.253 µM): 0.415 | relative viability ([11]; first compound 0.8 µM): 0.441 | relative viability ([11]; first compound 2.53 µM): 0.439 | relative viability ([12]; first compound 0.08 µM): 0.61 | relative viability ([12]; first compound 0.253 µM): 0.622 | relative viability ([12]; first compound 0.8 µM): 0.675 | relative viability ([12]; first compound 2.53 µM): 0.675 | relative viability ([13]; first compound 0.08 µM): 0.628 | relative viability ([13]; first compound 0.253 µM): 0.508 | relative viability ([13]; first compound 0.8 µM): 0.723 | relative viability ([13]; first compound 2.53 µM): 0.715 | relative viability ([14]; first compound 0.08 µM): 0.234 | relative viability ([14]; first compound 0.253 µM): 0.211 | relative viability ([14]; first compound 0.8 µM): 0.218 | relative viability ([14]; first compound 2.53 µM): 0.219 | relative viability ([15]; first compound 0.08 µM): 0.461 | relative viability ([15]; first compound 0.253 µM): 0.383 | relative viability ([15]; first compound 0.8 µM): 0.399 | relative viability ([15]; first compound 2.53 µM): 0.437 | relative viability ([16]; first compound 0.08 µM): 0.429 | relative viability ([16]; first compound 0.253 µM): 0.367 | relative viability ([16]; first compound 0.8 µM): 0.421 | relative viability ([16]; first compound 2.53 µM): 0.39 | relative viability ([17]; first compound 0.08 µM): 0.813 | relative viability ([17]; first compound 0.253 µM): 0.72 | relative viability ([17]; first compound 0.8 µM): 0.845 | relative viability ([17]; first compound 2.53 µM): 0.83 | relative viability ([18]; first compound 0.08 µM): 0.801 | relative viability ([18]; first compound 0.253 µM): 0.8 | relative viability ([18]; first compound 0.8 µM): 0.791 | relative viability ([18]; first compound 2.53 µM): 0.714 | relative viability ([19]; first compound 0.08 µM): 0.501 | relative viability ([19]; first compound 0.253 µM): 0.5 | relative viability ([19]; first compound 0.8 µM): 0.519 | relative viability ([19]; first compound 2.53 µM): 0.561 | relative viability ([20]; first compound 0.08 µM): 0.952 | relative viability ([20]; first compound 0.8 µM): 0.994 | relative viability ([20]; first compound 2.53 µM): 0.914 | relative viability ([21]; first compound 0.08 µM): 0.966 | relative viability ([21]; first compound 0.253 µM): 0.897 | relative viability ([21]; first compound 0.8 µM): 0.903 | relative viability ([21]; first compound 2.53 µM): 0.908
